Test results from patent US8729055B2, “Ursolic acid derivative and pharmaceutical composition thereof” (Kaohsiung Medical University, priority 2010, dated 2014).

Legend:
[1] = test system: microtubule assembly in NTUB1 cells; experiment: Microtubule assembly by indirect immunofluorescence staining in NTUB1 cells; type: cell-based, human; details: 10 nM taxol, FIG. 5(B)
Description: All inhibition of tubulin polymerization has been implicated in G2/M phase cell cycle arrest in various cancer cell lines. Accordingly, whether treatment of cells with 20 μM compound 23 for 48 h affects in vivo microtubular architecture is investigated in the present example. Microtubule assembly is analyzed by indirect immunofluorescence staining using an anti-tubulin antibody (Santa Cruz Biotechnology, Santa Cruz, Calif., USA).
NTUB1 cells plated on coverslips are treated with no compound as control, 10 nM taxol, 50 μM compound 23 for 24 h. After treatment, cells are fixed with 2% formaldehyde/PBS for 20 min, washed with PBS, and cold methanol (−20° C.) for 3 min. After washing with PBS, cells are added anti-α-tubulin monoclonal antibody (Sigma, Co) in PBS and incubated for 3 h at room temperature. Then cells are washed with PBS and reincubated with Rodamine-conjugated secondary antibody (Sigma, Co) in dark room for 1 h at room temperature. After being washed with PBS, coverslips are mounted with 80% glycerol in PBS and examined with Axioskop 2 plus fluorescence microscope.
Please refer to FIGS. 5(A) to 5(C), which are diagrams showing the effects of taxol and compound 23 on microtubule assembly, wherein the cellular microtubules are observed by Axioskop 2 plus fluorescence microscope.

[2] = test system: rat peritoneal mast cells stimulated with compound 48/80; experiment: Experiment C: release of β-glucuronidase from rat peritoneal mast cells stimulated with compound 48/80; type: cell-based
Description: (§1) This example illustrates the anti-inflammatory activities of compounds 5, 7-11, 20 and 21. The anti-inflammatory activities of compounds 5, 7-11, 20 and 21 are studied in vitro for their inhibitory effects on chemical mediators released from neutrophils, mast cells or macrophages of rat.
(§2) Please refer to Table 2, which illustrates the inhibitory effects of compounds 5, 7-11, 20 and 21 on the accumulation of NO2^− (Experiment A), superoxide anion formation (n mol/10^6 cells/30 min) from rat neutrophils stimulated with PMA (Experiment B), and the release of β-glucuronidase from rat peritoneal mast cells stimulated with compound 48/80 (Experiment C). In Table 2, when 50% inhibition could not be reached at the highest concentration, the percentage of inhibition at 30 μM is given.
In the Experiment C, Heparinized Tyrode's solution is injected into the peritoneal cavity of exsanguinated rat (Sprague-Dawley, 250-300 g). After abdominal massage, cells in the peritoneal fluid are harvested and then separated in 38% bovine serum albumin (BSA) in glucose-free Tyrode's solution. […] Fifteen min after the addition of compound 48/80 ([…]), β-glucuronidase (phenolphthalein-β-glucuronide as substrate, 550 nm) in the supernatant is determined. The total content of β-glucuronidase is measured after treatment of the cell suspension with Triton X-100, and the percentage release is calculated. […]

[3] = test system: NTUB1 cells (human bladder cancer cell line); experiment: MTT cytotoxicity assay against NTUB1 cells; type: cell-based
Description: In the present embodiment, cell culture and MTT assay is used for cell viability/proliferation. NTUB1, a human bladder cancer cell line, is established from a high-grade bladder cancer. […] The cells are cultured at 37° C. in a humidified atmosphere containing 5% CO2. […] Briefly, the cells are plated at a density of 1800 cells/well in 96-well plates and incubated at 37° C. overnight before drug exposure. Cells are then cultured in the presence of graded concentrations of the test compound with or without various concentrations of cisplatin (Pharmacia & Upjohn, Milan, Italy) at 37° C. for 72 h. At the end of the culture period, 50 μL of MTT (2 mg/mL in PBS) is added to each well and allowed to react for 3 h. Following centrifugation of plates at 1000 g for 10 min, media are removed and 150 μL DMSO are added to each well. The proportions of surviving cells are determined by absorbance spectrometry at 540 nm using […]) microplate reader. The cell viability is expressed as a percentage to the viable cells of control culture condition. The IC50s of each group are calculated by the […] analysis and presented as mean±standard deviation (SD). […] In Table 1, data are presented as mean±SD (n=5). […] The control cells are treated with culture medium containing 0.1% DMSO. Cisplatin is used as a positive control.

accumulation of NO2− = experiment: Experiment A: accumulation of NO2− (Griess reaction); type: cell-based, rat; details: inhibition of accumulation of NO2−
Description: as §1, §2
In the Experiment A, Nitric oxide (NO) in the cell medium is determined by the Griess reaction, and N-(3-aminomethyl)benzylamide (1400 W) is used as a positive control.

Question: For `CC(=O)O[C@H]1C(=O)[C@@]2(C)[C@H]([C@H](OC(=O)c3ccccc3)[C@]3(O)C[C@H](OC(=O)[C@H](O)[C@@H](NC(=O)c4ccccc4)c4ccccc4)C(C)=C1C3(C)C)[C@]1(OC(C)=O)CO[C@@H]1C[C@@H]2O` [taxol], which “effect on microtubule assembly” value [1] is on record?
Answer: distinctive microtubule bundle

Question: With `CCN(CC)CCCC(C)Nc1c2ccc(Cl)cc2nc2ccc(OC)cc12` (stereo not shown) [mepacrine, reference compound] as the compound, how does the IC50 ([2]; Mast cell, rat peritoneal mast cells, compound 48/80) read?
Answer: 12.4 ± 1.6 µM

Question: Which IC50 ([3]; NTUB1 cells, MTT, 72 h, mean±SD (n=5)) does the source give for `C=C(C)[C@@H]1CC[C@]2(C)[C@H](CC=C3[C@@H]4[C@@H](C)[C@H](C)CC[C@]4(C(=O)O)CC[C@]32C)[C@@]1(C)CCC(=O)OC` [Compound 21, Methyl 3,4-seco-ursan-4(23), 12-dien-28-oic 3-oat] here?
Answer: > 30 µM

Question: And the “% of viability at the highest concentration” value ([3]; NTUB1 cells, given when 50% inhibition not reached at the highest concentration (30 μM))?
Answer: 62.77%

Question: And the “cytotoxic activity against NTUB1 cells, in words” value ([3]; comparison with the parent compound, from Table 1)?
Answer: weakens cytotoxic activities

Question: And the IC50 (accumulation of NO2−)?
Answer: 15.6 ± 2.5 µM

Question: What about the “percentage of inhibition at 30 μM, C β-glucuronidase” value ([2]; 30 μM, given when 50% inhibition not reached) of the same compound?
Answer: 29.3 ± 2.1%
